The text below walks through data of article PMC9030697, “Engineering and Structural Insights of a Novel BBI-like Protease Inhibitor Livisin from the Frog Skin Secretion” (Toxins, 2022).

In brackets after ≈: the same amount, converted by molar mass. Where two headings read alike, the source gives them in different places. Some results are limits rather than exact numbers.

In general, Ki refers to a measure of affinity in units of concentration, obtained from inhibition or displacement.

In test [1] the target is T1, bovine trypsin (Bos taurus, UniProt P00760).
T1 construct: purchased Sigma-Aldrich
T1 sequence (P00760 24-246): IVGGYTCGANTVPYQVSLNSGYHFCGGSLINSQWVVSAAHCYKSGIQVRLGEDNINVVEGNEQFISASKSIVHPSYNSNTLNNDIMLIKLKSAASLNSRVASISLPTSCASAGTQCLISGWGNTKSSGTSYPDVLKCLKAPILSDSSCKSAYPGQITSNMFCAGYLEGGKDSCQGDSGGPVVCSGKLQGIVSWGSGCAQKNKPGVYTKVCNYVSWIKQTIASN
In words: Kinetic assay for the inhibition constant (Ki), trypsin. It counts as biochemical. On the procedure:
(§1) The inhibitory activities against these proteases were tested at a peptide concentration ranging from 0.1 μM to 100 μM.
(§2) (a) Bovine trypsin; (b) matriptase; (c) chymotrypsin; (d) mesotrypsin; (e) human proteasome 20s. The activity of each protease was assayed in the presence of each peptide ranging from 0.1 μM to 100 μM in PBS (pH 7.4) and the corresponding substrate: Z-Gly-Gly-Arg-NHMec (trypsin); Suc-Ala-Ala-Pro-Phe-NHMec (chymotrypsin); Boc-Gln-Ala-Arg-AMC (matriptase); Mca-Arg-Pro-Val-Glu-Nval-Trp-Arg-Lys(Dnp)-NH2 (mesotrypsin); Suc-Leu-Leu-Val-Tyr-AMC (human proteasome 20s).
(§3) Kinetic assays for the inhibition constant (Ki). […] Inhibitory activities against the proteases of the peptides were tested using previously published papers and manufacturers’ instructions from 0.1 μM to 100 μM in PBS (pH 7.4). Wells of a black microtiter plate were loaded with designed different concentrations of peptide solution. […] For the human proteasome 20s, florescent was read after 15 min pre-incubation. The fluorescent products’ formation rate was measured continuously at 37 °C in the kinetic model using a multi-detection microplate reader (BMG Labtech, Ortenberg, Germany). […] Assays were repeated individually three times, and the Ki was calculated by non-linear regression (Morrison equation) using GraphPad Prism.

Test [2] concerns the target chymotrypsin (Bos taurus, UniProt P00766). In words: biochemical. The procedure:
as §1, §2, §3

For test [3], the system named is Staphylococcus aureus (NCTC 10788). On the procedure: (§4) The antimicrobial activities of the five peptides were assessed by determining their minimal inhibitory concentrations (MICs) against three standard microorganisms, the Gram-positive bacterium Staphylococcus aureus (NCTC 10788) and the Gram-negative bacterium Escherichia coli (NCTC 10418), and the opportunistic pathogen yeast Candida albicans (NCPF 1467).
(§5) Minimal inhibitory concentration assay. Antimicrobial activities of the peptides were monitored by determining their minimal inhibitory concentrations (MICs) using three standard microorganisms, which were Gram-positive bacterium Staphylococcus aureus (NCTC 10788), Gram-negative bacterium Escherichia coli (NCTC 10418), and opportunistic pathogen yeast Candida albicans (NCPF 1467). The peptides were dissolved in physiological PBS, two-fold diluted to obtain a series of concentrations, and added into wells of 96-well microtiter plates. The respective concentrations of peptides and controls were incubated with microorganism cultures (5 × 10^5 colony-forming units/mL) for 18 h at 37 °C in a humidified atmosphere. Then, the growth of microorganisms was detected by measuring optical density at λ = 550 nm using an absorbance reader (BioTek Instruments, Winooski, VT, USA). MIC was defined as the minimum concentration of peptide at which no growth was detectable.

Test [4] deals with Escherichia coli (NCTC 10418). On the procedure:
as §4, §5

The test system of test [5] is Candida albicans (NCPF 1467). On the procedure:
as §4, §5

The target in test [6] is T2, human matriptase-1 (Homo sapiens, UniProt Q9Y5Y6).
T2 construct: purchased R&D systems
T2 sequence (Q9Y5Y6 1-855): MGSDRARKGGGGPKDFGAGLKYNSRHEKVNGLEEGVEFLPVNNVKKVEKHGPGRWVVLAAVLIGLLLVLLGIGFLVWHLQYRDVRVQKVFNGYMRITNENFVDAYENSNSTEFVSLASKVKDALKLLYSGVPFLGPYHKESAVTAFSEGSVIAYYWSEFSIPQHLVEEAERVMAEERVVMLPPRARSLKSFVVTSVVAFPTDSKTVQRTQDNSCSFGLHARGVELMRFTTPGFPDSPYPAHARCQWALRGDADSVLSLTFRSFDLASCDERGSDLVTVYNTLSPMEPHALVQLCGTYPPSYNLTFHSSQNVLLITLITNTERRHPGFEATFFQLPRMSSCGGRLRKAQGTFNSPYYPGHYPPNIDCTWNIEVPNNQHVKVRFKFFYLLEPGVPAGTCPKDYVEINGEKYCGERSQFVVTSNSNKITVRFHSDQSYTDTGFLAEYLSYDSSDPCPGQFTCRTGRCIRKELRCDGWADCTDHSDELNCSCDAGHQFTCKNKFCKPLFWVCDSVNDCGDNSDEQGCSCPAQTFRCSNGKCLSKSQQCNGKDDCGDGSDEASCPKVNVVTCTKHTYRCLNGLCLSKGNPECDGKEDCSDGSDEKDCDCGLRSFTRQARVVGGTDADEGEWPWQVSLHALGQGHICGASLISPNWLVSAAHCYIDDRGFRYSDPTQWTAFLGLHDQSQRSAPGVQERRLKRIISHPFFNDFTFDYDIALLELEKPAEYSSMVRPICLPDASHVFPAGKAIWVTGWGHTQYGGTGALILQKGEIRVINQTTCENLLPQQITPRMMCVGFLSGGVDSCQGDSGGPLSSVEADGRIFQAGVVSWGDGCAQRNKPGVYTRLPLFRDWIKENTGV
In words: Kinetic assay for the inhibition constant (Ki), matriptase. It is filed as biochemical. The procedure:
as §1, §2, §3

The target in test [7] is T3, human proteasome 20s (Homo sapiens, UniProt P28074).
T3 construct: purchased Biochem, Boston, MA, USA
In words: Kinetic assay for the inhibition constant (Ki), 20s proteasome. It counts as biochemical. On the procedure: as §1, §2, §3

The target of test [8] is T4, mesotrypsin (Homo sapiens, UniProt P35030).
T4 construct: purchased R&D systems
T4 sequence (P35030 1-304): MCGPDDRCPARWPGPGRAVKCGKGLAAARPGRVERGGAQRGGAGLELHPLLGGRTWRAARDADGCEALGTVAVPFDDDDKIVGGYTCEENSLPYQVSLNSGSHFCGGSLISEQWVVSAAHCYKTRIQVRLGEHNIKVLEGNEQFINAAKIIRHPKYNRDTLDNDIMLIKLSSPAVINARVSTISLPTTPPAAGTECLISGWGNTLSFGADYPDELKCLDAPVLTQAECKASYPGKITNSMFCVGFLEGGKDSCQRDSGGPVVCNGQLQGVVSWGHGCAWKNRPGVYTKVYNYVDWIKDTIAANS
In words: Kinetic assay for the inhibition constant (Ki), mesotrypsin. It is filed as biochemical. On the procedure: as §1, §2, §3

Setting [9] is: two-fold dilutions in PBS, 5 × 10^5 CFU/mL, 18 h at 37 °C, OD 550 nm, highest concentration 512 μg/mL.

For `CC(C)C[C@H](NC(=O)[C@@H]1CSSC[C@H](NC(=O)CNC(=O)[C@H](CCCNC(=N)N)NC(=O)[C@H](CC(C)C)NC(=O)[C@H](Cc2ccccc2)NC(=O)CN)C(=O)N[C@@H](Cc2c[nH]c3ccccc23)C(=O)N[C@@H]([C@@H](C)O)C(=O)N[C@@H](CCCNC(=N)N)C(=O)N[C@@H](CO)C(=O)N[C@@H](Cc2ccccc2)C(=O)N2CCC[C@H]2C(=O)N2CCC[C@H]2C(=O)N[C@@H](CCCCN)C(=O)N2CCC[C@H]2C(=O)N1)C(=O)O` [livisin-Arg], the Ki was 1.02 µM in test [1]; 74.7 µM in test [2]; 46.9 µM in test [6] (human matriptase, peptide 0.1-100 μM in PBS pH 7.4, substrate Boc-Gln-Ala-Arg-AMC 20 μM, 37 °C, continuous fluorescence, Morrison equation, three independent experiments, each in duplicate, NI = no inhibition, read-out: Ki Matriptase); > 100 µM in test [7] (peptide 0.1-100 μM in PBS pH 7.4, substrate Suc-Leu-Leu-Val-Tyr-AMC 20 μM, 15 min pre-incubation, 37 °C, fluorescence, Morrison equation, three independent experiments, each in duplicate, NI = no inhibition, read-out: Ki 20s Proteasome); 32.1 µM in test [8] (peptide 0.1-100 μM in PBS pH 7.4, substrate Mca-Arg-Pro-Val-Glu-Nval-Trp-Arg-Lys(Dnp)-NH2 20 μM, 37 °C, continuous fluorescence, Morrison equation, three independent experiments, each in duplicate, NI = no inhibition, read-out: Ki Mesotrypsin). In test [3] (NCTC 10788, 18 h), the “MIC S. aureus (NCTC 10788)” value is >512 µg/mL. Moreover, the “MIC E. coli (NCTC 10418)” value in test [4] (NCTC 10418, 18 h) was >512 µg/mL. For the same molecule, in test [5] (NCPF 1467, 18 h), the “MIC C. albicans (NCPF 1467)” value is >512 µg/mL.

With `CC(C)C[C@H](NC(=O)[C@@H]1CSSC[C@H](NC(=O)CNC(=O)[C@H](CCCNC(=N)N)NC(=O)[C@H](CC(C)C)NC(=O)[C@H](Cc2ccccc2)NC(=O)CN)C(=O)N[C@@H](Cc2c[nH]c3ccccc23)C(=O)N[C@@H]([C@@H](C)O)C(=O)N[C@@H](CCCCN)C(=O)N[C@@H](CO)C(=O)N[C@@H](Cc2ccccc2)C(=O)N2CCC[C@H]2C(=O)N2CCC[C@H]2C(=O)N[C@@H](CCCCN)C(=O)N2CCC[C@H]2C(=O)N1)C(N)=O` [livisin-NH2], the Ki in test [1] (bovine trypsin, peptide 0.1-100 μM in PBS pH 7.4, substrate Z-Gly-Gly-Arg-NHMec 45 μM, 37 °C, continuous fluorescence, Morrison equation, three independent experiments, each in duplicate, NI = no inhibition, read-out: Ki Trypsin) was 0.424 µM; in test [2], 144 µM; in test [6] it was 2.36 µM; in test [7] (read-out: Ki 20s Proteasome, peptide 0.1-100 μM in PBS pH 7.4, substrate Suc-Leu-Leu-Val-Tyr-AMC 20 μM, 15 min pre-incubation, 37 °C, fluorescence, Morrison equation, three independent experiments, each in duplicate, NI = no inhibition), > 100 µM; in test [8], 18.6 µM. Besides, in test [3] (setting [9]), the “MIC S. aureus (NCTC 10788)” value is >512 µg/mL. Moreover, the “MIC E. coli (NCTC 10418)” value in test [4] (setting [9]) was >512 µg/mL. In addition, the “MIC C. albicans, given in μM” value in test [5] (same MIC as 256 μg/mL, printed in molar unit, 18 h at 37 °C, OD 550 nm) is 132 µM (≈ 255 µg/mL). The “MIC C. albicans (NCPF 1467)” value in test [5] (setting [9]) worked out at 256 µg/mL (≈ 132 µM).
